Assay results taken from the supplement of paper PMC10307832.

Experiments:
Test in all cases: relative viability (nuclei count vs DMSO), 5 days (fraction); higher = more cells survive
[1] = compound: NC(=O)[C@@H](CCC(F)(F)F)N(Cc1ccc(-c2ncon2)cc1F)S(=O)(=O)c1ccc(Cl)cc1 [Avagacestat] + CS(=O)(=O)CCNCc1ccc(-c2ccc3ncnc(Nc4ccc(OCc5cccc(F)c5)c(Cl)c4)c3c2)o1 [Lapatinib] (partner 2 µM)
How it was run: (§1)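 Lung cancer cell lines in 1536-well plates got either a single drug or a fixed anchor-drug dose together with five library-drug doses (not always all listed) in √10 steps, by pin tool, on the day after seeding. Nuclei were counted after 5 days, and relative viability is the treated-to-vehicle ratio of nuclei counts. Values are medians of duplicate plates.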

[2] = compound: NC(=O)[C@@H](CCC(F)(F)F)N(Cc1ccc(-c2ncon2)cc1F)S(=O)(=O)c1ccc(Cl)cc1 [Avagacestat] + C[C@@H](Oc1cc(-c2cnn(C3CCNCC3)c2)cnc1N)c1c(Cl)ccc(F)c1Cl [Crizotinib] (partner 1 µM)
How it was run: as §1

[3] = compound: NC(=O)[C@@H](CCC(F)(F)F)N(Cc1ccc(-c2ncon2)cc1F)S(=O)(=O)c1ccc(Cl)cc1 [Avagacestat] + Cc1nc(Nc2ncc(C(=O)Nc3c(C)cccc3Cl)s2)cc(N2CCN(CCO)CC2)n1 [Dasatinib] (partner 0.075 µM)
How it was run: as §1

[4] = compound: NC(=O)[C@@H](CCC(F)(F)F)N(Cc1ccc(-c2ncon2)cc1F)S(=O)(=O)c1ccc(Cl)cc1 [Avagacestat] + Nc1nc2[nH]cc(CCc3ccc(C(=O)N[C@@H](CCC(=O)O)C(=O)O)cc3)c2c(=O)[nH]1 [Pemetrexed] (partner 0.2 µM)
How it was run: as §1

Row | Cell Line | relative viability ([1]; first compound 0.08 µM) | relative viability ([1]; first compound 0.253 µM) | relative viability ([1]; first compound 0.8 µM) | relative viability ([1]; first compound 2.53 µM) | relative viability ([1]; first compound 8 µM) | relative viability ([2]; first compound 0.08 µM) | relative viability ([2]; first compound 0.253 µM) | relative viability ([2]; first compound 0.8 µM) | relative viability ([2]; first compound 2.53 µM) | relative viability ([2]; first compound 8 µM) | relative viability ([3]; first compound 0.08 µM) | relative viability ([3]; first compound 0.253 µM) | relative viability ([3]; first compound 0.8 µM) | relative viability ([3]; first compound 2.53 µM) | relative viability ([3]; first compound 8 µM) | relative viability ([4]; first compound 0.08 µM) | relative viability ([4]; first compound 0.253 µM) | relative viability ([4]; first compound 0.8 µM) | relative viability ([4]; first compound 2.53 µM) | relative viability ([4]; first compound 8 µM)
1 | LK-2 | 1.13 | 0.985 | 0.785 | 0.521 | 0.76 | 0.241 | 0.206 | 0.249 | 0.282 | 0.235 | 0.26 | 0.224 | 0.247 | 0.271 | 0.267 | 0.272 | 0.294 | 0.314 | 0.251 | 0.264
2 | NCI-H838 | 1.5 | 1.04 | 1.13 | 0.865 | 0.835 | 0.932 | 1.09 | 0.906 | 0.858 | 0.764 | 0.293 | 0.285 | 0.328 | 0.309 | 0.253 | 0.263 | 0.271 | 0.28 | 0.238 | 0.243
3 | HCC-44 | 1.23 | 0.893 | 1.17 | 1.03 | 0.98 | 0.92 | 0.905 | 0.846 | 0.838 | 0.699 | – | – | – | – | – | 0.733 | 0.68 | 0.706 | 0.66 | 0.639
4 | IA-LM | 1.8 | 1.39 | 1.38 | 1 | 1.07 | 1.98 | 1.36 | 1.09 | 0.879 | 1.1 | – | – | – | – | – | – | – | – | – | –
5 | NCI-H1734 | 1.52 | 1.26 | 1.11 | 1.07 | 1.07 | 0.969 | 0.755 | 0.705 | 0.733 | 0.575 | 0.545 | 0.542 | 0.48 | 0.471 | 0.432 | 0.437 | 0.398 | 0.401 | 0.426 | 0.434
6 | NCI-H1944 | 0.714 | 0.937 | 0.77 | 0.669 | 0.756 | 1.09 | 1.2 | 0.958 | 0.915 | 0.919 | 0.199 | 0.201 | 0.227 | 0.202 | 0.222 | 0.784 | 0.654 | 0.613 | 0.599 | 0.585
7 | HCC-366 | 1.6 | 1.26 | 1.23 | 1.05 | 1.21 | 0.608 | 0.645 | 0.517 | 0.525 | 0.645 | 0.842 | 0.981 | 0.676 | 0.544 | 0.601 | 0.199 | 0.195 | 0.191 | 0.161 | 0.142
8 | LXF-289 | 0.895 | 0.921 | 0.886 | 0.892 | 0.814 | 0.852 | 0.941 | 0.795 | 0.816 | 0.774 | 0.196 | 0.183 | 0.168 | 0.191 | 0.152 | 0.986 | 0.947 | 0.936 | 0.905 | 0.799
9 | EBC-1 | 0.212 | 0.231 | 0.246 | 0.23 | 0.202 | 0.213 | 0.196 | 0.2 | 0.21 | 0.203 | – | – | – | – | – | – | – | – | – | –
